Tested on: not given
Experiment: not given
Conditions: not given

Row | Structure (SMILES) | melting point
1 | Nc1ccccc1NC(=O)c1cc2cc(OCCO)ccc2s1 [Example 16, 5-(2-Hydroxy-ethoxy)-benzo[b]thiophene-2-carboxylic acid (2-amino-phenyl)-amide] | 215 to 216 °C

Tested on: histone deacetylase (HDAC)
Experiment: cellular acetylation assay (acetylation of histones in PC3 cells, ELISA)
Assay type: cell-based
Conditions: PC3 human prostate carcinoma cells; compound 1 μM; 24 h incubation; ELISA with antibodies against acetylated histone H3 or H4
Experimental: Therein acetylation of histones is monitored in PC3 cells. High acetylation correlates with inhibition of histone deacetylase by compounds. Cell viability is monitored in parallel to estimate the cytotoxicity of compounds.
PC3 cells, a human prostate carcinoma cell line, are seeded as 1800 cells per well of a 384-well microtiterplate in RPMI 1640 (including 5% FCS, 2 mM glutamine and pen/strep).
After 48 h at 37° C. pre-diluted compounds are added to a final concentration of 1 uM. Compounds are pre-diluted in dimethyl sulfoxide (DMSO) resulting in a final concentration of DMSO of 0.5% per well.
After 24 h incubation cell viability is determined by adding cell proliferation reagent WST-1 (Roche Molecular Biochemicals). Another 60 min later the optical density (OD) is measured (450 nm versus 690 nm).
After measurement the cell layer is prepared for the ELISA reaction. Medium is aspirated and cells are fixed in ethanol at −20° C. for 60 min. After washing with PBS/Tween the blocking solution (PBS/5% FCS/Tween) is added and the cell layer is washed again. Antibodies against acetylated histone H3 or H4 (rabbit polyklonal IgG, Upstate Biotechnologie) are added at a dilution of 1:200 for 60 min at 37° C. As a second antibody goat anti rabbit IgG (H+L) humanIgG adsorbed-HRP conjugate (Dako) is used (1:2000 diluted). Cells are washed 3 times and the peroxidase substrate ABTS is allowed to react for 30–60 min at 37° C. The OD is measured at 405 nm.
The percentage of acetylation is calculated after substraction of blank O.D.s: […]

Row | Structure (SMILES) | cell acetylation (PC3, 1 μM) [% of control]
2 | CC(=O)Nc1ccc(C(=O)Nc2ccccc2N)cc1 [4-acetylamino-N-(2-amino-phenyl)-benzamide, reference compound] | 152 % of control
3 | Nc1ccccc1NC(=O)c1cc2cc(CCO)ccc2o1 [Example 24, 5-(2-Hydroxy-ethyl)-benzofuran-2-carboxylic acid (2-amino-phenyl)-amide] | 157 % of control
4 | CN(C)CCCOc1ccc2sc(C(=O)Nc3ccccc3N)cc2c1 [Example 2, 5-(3-Dimethylamino-propoxy)-benzo[b]thiophene-2-carboxylic acid (2-amino-phenyl)-amide] | 209 % of control
5 | Nc1ccccc1NC(=O)c1cc2cc(OCCO)ccc2s1 [Example 16, 5-(2-Hydroxy-ethoxy)-benzo[b]thiophene-2-carboxylic acid (2-amino-phenyl)-amide] | 156 % of control
6 | CC(C)N(CCOc1ccc2sc(C(=O)Nc3ccccc3N)cc2c1)C(C)C [Example 3, 5-(2-Diisopropylamino-ethoxy)-benzo[b]thiophene-2-carboxylic acid (2-amino-phenyl)-amide] | 172 % of control

Reference: US7208491B2, “N-monoacylated o-phenylenediamines” (Hoffmann-La Roche Inc., priority 2003, dated 2007)
